Results taken from the kinase profiling compilation of Christmann-Franck et al. (2016).

Key:
Assay in all cases: KINOMEscan competition binding
Settings in all cases: compound 10.0 µM
LTK (human) = LTK (human) (UniProt P29376)
MARK4 (human) = MARK4 (human) (UniProt Q96L34)
SYK (human) = SYK (human) (UniProt P43405)
MARK3 (human) = MARK3 (human) (UniProt P27448)
CLK3 (human) = CLK3 (human) (UniProt P49761)
EPHA6 (human) = EPHA6 (human) (UniProt Q9UF33)
ERBB4 (human) = ERBB4 (human) (UniProt Q15303)
Sequence of ERBB4 (human) (Q15303 whole entry, looked up): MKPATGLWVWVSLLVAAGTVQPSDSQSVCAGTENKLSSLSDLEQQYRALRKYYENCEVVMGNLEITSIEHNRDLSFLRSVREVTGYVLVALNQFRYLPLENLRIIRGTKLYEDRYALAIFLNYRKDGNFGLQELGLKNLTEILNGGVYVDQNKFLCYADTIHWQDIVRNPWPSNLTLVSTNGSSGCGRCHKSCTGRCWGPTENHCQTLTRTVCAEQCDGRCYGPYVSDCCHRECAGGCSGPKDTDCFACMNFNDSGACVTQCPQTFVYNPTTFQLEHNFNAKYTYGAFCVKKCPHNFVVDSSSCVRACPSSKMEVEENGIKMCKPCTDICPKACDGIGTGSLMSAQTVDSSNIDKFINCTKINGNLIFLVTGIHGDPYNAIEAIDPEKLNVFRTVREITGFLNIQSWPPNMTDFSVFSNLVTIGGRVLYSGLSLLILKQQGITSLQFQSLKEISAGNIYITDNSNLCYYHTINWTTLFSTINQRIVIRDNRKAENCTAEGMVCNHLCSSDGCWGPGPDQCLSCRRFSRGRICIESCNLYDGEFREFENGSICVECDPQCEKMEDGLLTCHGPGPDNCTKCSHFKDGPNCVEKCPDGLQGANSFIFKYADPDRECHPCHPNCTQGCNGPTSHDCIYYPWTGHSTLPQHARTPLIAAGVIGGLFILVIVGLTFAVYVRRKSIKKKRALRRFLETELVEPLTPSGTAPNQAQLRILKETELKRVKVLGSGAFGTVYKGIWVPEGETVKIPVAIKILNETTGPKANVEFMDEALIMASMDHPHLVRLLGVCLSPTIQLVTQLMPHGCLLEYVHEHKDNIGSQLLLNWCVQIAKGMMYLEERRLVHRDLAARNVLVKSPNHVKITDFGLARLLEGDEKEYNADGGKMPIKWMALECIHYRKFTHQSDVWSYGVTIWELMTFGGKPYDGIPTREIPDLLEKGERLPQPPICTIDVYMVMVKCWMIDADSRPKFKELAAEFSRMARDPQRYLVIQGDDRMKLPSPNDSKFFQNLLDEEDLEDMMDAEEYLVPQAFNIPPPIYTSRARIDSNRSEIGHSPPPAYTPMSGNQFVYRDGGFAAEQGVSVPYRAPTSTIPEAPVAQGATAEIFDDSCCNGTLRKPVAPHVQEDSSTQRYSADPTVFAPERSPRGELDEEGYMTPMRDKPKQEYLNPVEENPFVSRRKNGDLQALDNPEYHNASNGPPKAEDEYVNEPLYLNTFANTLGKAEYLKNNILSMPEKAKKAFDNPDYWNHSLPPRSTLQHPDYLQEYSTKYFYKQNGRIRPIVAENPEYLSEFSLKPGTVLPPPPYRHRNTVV

GRK7 (human) = GRK7 (human) (UniProt Q8WTQ7)
AKT2 (human) = AKT2 (human) (UniProt P31751)
PIK3CB (human) = PIK3CB (human) (UniProt P42338)
PIK3CD (human) = PIK3CD (human) (UniProt O00329)
CSNK1G2 (human) = CSNK1G2 (human) (UniProt P78368)
RPS6KB1 (human) = RPS6KB1 (human) (UniProt P23443)
CDK5 (human) = CDK5 (human) (UniProt Q00535)
PKN1 (human) = PKN1 (human) (UniProt Q16512)
STK32A (human) = STK32A (human) (UniProt Q8WU08)
Sequence of STK32A (human) (Q8WU08 whole entry, looked up): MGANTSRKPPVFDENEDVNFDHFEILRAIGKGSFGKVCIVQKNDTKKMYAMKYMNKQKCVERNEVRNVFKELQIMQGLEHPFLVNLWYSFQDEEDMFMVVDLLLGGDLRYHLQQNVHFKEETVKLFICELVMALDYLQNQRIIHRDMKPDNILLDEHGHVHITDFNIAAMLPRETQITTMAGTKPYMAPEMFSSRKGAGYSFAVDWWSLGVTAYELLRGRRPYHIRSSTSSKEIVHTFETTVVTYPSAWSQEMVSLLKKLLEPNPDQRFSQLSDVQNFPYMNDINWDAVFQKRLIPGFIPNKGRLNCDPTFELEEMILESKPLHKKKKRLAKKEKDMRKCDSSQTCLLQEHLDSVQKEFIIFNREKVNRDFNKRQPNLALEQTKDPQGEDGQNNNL

RPS6KA6 KD1 (human) = RPS6KA6 KD1 (human) (UniProt Q9UK32)
STK25 (human) = STK25 (human) (UniProt O00506)
ROS1 (human) = ROS1 (human) (UniProt P08922)
PRKD2 (human) = PRKD2 (human) (UniProt Q9BZL6)
ITK (human) = ITK (human) (UniProt Q08881)
TBK1 (human) = TBK1 (human) (UniProt Q9UHD2)
PTK2B (human) = PTK2B (human) (UniProt Q14289)
Sequence of PTK2B (human) (Q14289 whole entry, looked up): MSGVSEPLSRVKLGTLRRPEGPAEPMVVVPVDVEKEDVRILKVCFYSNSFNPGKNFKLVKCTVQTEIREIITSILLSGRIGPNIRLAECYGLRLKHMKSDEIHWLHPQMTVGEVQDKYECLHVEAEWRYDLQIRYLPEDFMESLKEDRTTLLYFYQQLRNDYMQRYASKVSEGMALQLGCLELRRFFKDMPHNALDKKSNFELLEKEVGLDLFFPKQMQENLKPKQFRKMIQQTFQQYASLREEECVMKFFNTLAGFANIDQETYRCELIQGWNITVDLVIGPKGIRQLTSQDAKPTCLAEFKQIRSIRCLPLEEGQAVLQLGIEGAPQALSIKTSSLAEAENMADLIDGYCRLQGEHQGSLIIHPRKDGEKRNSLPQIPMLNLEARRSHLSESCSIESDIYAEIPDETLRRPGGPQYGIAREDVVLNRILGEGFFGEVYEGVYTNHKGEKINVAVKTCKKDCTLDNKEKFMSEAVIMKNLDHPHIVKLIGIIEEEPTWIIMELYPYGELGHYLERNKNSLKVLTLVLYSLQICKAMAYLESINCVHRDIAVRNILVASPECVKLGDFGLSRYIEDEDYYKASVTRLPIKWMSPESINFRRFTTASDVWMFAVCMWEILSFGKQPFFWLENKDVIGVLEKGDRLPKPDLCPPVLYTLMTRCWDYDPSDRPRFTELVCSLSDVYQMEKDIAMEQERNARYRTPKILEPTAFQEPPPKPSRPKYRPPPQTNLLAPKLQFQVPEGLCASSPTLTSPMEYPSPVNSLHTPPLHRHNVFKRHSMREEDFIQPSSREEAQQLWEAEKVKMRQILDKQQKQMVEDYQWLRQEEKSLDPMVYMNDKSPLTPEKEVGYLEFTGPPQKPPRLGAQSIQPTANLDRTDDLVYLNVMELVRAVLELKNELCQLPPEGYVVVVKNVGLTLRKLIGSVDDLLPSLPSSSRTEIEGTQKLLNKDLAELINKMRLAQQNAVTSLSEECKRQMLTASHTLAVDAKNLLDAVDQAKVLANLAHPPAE

CDK3 (human) = CDK3 (human) (UniProt Q00526)
GRK1 (human) = GRK1 (human) (UniProt Q15835)
STK36 (human) = STK36 (human) (UniProt Q9NRP7)
MERTK (human) = MERTK (human) (UniProt Q12866)
PRKCI (human) = PRKCI (human) (UniProt P41743)
PIK3C2G (human) = PIK3C2G (human) (UniProt O75747)
PIP4K2B (human) = PIP4K2B (human) (UniProt P78356)
TLK2 (human) = TLK2 (human) (UniProt Q86UE8)
CDC42BPB (human) = CDC42BPB (human) (UniProt Q9Y5S2)
Sequence of CDC42BPB (human) (Q9Y5S2 whole entry, looked up): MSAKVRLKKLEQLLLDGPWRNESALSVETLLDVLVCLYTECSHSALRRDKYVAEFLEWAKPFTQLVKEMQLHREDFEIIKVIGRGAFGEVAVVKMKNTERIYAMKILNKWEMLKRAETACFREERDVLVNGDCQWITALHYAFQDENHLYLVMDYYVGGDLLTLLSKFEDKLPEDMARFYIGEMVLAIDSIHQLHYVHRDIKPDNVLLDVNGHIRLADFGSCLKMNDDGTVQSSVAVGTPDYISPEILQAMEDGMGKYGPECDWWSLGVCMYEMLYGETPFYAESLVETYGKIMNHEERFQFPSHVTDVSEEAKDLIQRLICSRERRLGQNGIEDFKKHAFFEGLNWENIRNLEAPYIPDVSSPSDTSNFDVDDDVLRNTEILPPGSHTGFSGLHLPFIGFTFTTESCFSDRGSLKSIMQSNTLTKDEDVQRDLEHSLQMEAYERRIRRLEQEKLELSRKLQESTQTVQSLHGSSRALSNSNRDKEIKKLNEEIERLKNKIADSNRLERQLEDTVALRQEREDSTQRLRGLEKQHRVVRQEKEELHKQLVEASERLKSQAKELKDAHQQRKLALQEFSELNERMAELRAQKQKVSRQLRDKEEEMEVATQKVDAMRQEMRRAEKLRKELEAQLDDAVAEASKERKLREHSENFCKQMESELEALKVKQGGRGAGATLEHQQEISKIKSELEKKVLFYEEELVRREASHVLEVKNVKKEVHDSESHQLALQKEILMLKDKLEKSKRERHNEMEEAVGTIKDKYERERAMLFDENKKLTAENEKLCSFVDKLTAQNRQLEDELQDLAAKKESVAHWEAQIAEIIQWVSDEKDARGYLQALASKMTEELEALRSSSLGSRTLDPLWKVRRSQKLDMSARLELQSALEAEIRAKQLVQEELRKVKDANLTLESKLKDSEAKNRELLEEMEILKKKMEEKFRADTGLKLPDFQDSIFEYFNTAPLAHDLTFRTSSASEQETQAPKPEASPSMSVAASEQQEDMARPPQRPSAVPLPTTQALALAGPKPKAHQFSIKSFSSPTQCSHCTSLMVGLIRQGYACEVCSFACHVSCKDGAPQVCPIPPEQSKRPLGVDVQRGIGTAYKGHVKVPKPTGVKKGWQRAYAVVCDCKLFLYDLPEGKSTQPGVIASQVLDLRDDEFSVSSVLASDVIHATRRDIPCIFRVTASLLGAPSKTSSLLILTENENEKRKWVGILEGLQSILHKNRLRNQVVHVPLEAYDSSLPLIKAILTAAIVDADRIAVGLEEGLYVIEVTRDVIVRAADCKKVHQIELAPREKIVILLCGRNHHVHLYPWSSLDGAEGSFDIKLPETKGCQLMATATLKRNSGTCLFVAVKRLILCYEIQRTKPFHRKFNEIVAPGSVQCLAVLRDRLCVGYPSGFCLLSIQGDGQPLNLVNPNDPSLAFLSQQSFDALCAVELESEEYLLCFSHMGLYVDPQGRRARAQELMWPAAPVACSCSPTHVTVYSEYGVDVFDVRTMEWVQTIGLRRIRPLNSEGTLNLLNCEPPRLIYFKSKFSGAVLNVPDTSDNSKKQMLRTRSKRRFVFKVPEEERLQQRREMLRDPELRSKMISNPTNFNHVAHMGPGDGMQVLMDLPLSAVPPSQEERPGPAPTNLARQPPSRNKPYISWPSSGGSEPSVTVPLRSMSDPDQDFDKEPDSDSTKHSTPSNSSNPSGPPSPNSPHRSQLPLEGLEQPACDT

FGFR2 (human) = FGFR2 (human) (UniProt P21802)
STK38L (human) = STK38L (human) (UniProt Q9Y2H1)
STK33 (human) = STK33 (human) (UniProt Q9BYT3)
EPHA4 (human) = EPHA4 (human) (UniProt P54764)
PLK3 (human) = PLK3 (human) (UniProt Q9H4B4)
Sequence of PLK3 (human) (Q9H4B4 whole entry, looked up): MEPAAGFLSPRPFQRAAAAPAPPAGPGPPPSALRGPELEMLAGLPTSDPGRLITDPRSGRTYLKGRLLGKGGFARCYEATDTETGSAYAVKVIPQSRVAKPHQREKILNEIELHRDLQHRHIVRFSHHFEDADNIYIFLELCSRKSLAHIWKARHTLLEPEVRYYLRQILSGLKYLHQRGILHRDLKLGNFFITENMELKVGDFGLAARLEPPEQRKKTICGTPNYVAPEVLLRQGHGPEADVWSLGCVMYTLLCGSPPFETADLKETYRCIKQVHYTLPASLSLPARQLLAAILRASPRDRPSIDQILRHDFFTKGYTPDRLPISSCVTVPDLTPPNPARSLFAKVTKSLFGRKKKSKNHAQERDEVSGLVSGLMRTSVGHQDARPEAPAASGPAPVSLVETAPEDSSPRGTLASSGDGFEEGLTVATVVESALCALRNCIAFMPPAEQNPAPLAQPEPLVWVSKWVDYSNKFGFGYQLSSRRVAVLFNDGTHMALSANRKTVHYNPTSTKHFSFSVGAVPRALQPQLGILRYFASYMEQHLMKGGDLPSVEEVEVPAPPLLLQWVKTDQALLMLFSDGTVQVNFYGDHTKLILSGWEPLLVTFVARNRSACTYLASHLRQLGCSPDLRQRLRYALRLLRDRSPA

LATS2 (human) = LATS2 (human) (UniProt Q9NRM7)
ULK2 (human) = ULK2 (human) (UniProt Q8IYT8)
MLTK (human) = MLTK (human) (UniProt Q9NYL2)

Structure (SMILES) | kinase still bound, per cent of control (LTK (human)) [%] | kinase still bound, per cent of control (MARK4 (human)) [%] | kinase still bound, per cent of control (SYK (human)) [%] | kinase still bound, per cent of control (MARK3 (human)) [%] | kinase still bound, per cent of control (CLK3 (human)) [%] | kinase still bound, per cent of control (EPHA6 (human)) [%] | kinase still bound, per cent of control (ERBB4 (human)) [%] | kinase still bound, per cent of control (GRK7 (human)) [%] | kinase still bound, per cent of control (AKT2 (human)) [%] | kinase still bound, per cent of control (PIK3CB (human)) [%] | kinase still bound, per cent of control (PIK3CD (human)) [%] | kinase still bound, per cent of control (CSNK1G2 (human)) [%] | kinase still bound, per cent of control (RPS6KB1 (human)) [%] | kinase still bound, per cent of control (CDK5 (human)) [%] | kinase still bound, per cent of control (PKN1 (human)) [%] | kinase still bound, per cent of control (STK32A (human)) [%] | kinase still bound, per cent of control (RPS6KA6 KD1 (human)) [%] | kinase still bound, per cent of control (STK25 (human)) [%] | kinase still bound, per cent of control (ROS1 (human)) [%] | kinase still bound, per cent of control (PRKD2 (human)) [%] | other results
NC(=O)Nc1cc(-c2cccc(F)c2)sc1C(=O)N[C@@H]1CCCNC1 | 0.3 | 2.2 | 0.05 | 0.85 | 62 | 8.2 | 4.4 | 0.15 | 60 | 68 | 100 | 0.95 | 6.4 | 100 | 0 | 1 | 0.3 | 0 | 2 | 0.9 | kinase still bound, per cent of control (ITK (human)): 0.55%; kinase still bound, per cent of control (TBK1 (human)): 4.8%; kinase still bound, per cent of control (PTK2B (human)): 0.6%; kinase still bound, per cent of control (CDK3 (human)): 100%; kinase still bound, per cent of control (GRK1 (human)): 0.6%; kinase still bound, per cent of control (STK36 (human)): 74%; kinase still bound, per cent of control (MERTK (human)): 0.05%; kinase still bound, per cent of control (PRKCI (human)): 11%; kinase still bound, per cent of control (PIK3C2G (human)): 64%; kinase still bound, per cent of control (PIP4K2B (human)): 0.2%; kinase still bound, per cent of control (TLK2 (human)): 1.9%; kinase still bound, per cent of control (CDC42BPB (human)): 74%; kinase still bound, per cent of control (FGFR2 (human)): 11%; kinase still bound, per cent of control (STK38L (human)): 0%; kinase still bound, per cent of control (STK33 (human)): 0%; kinase still bound, per cent of control (EPHA4 (human)): 3.4%; kinase still bound, per cent of control (PLK3 (human)): 39%; kinase still bound, per cent of control (LATS2 (human)): 2%; kinase still bound, per cent of control (ULK2 (human)): 0%; kinase still bound, per cent of control (MLTK (human)): 40%
C=CC(=O)Nc1cc(-n2c(=O)ccc3cnc4ccc(-c5cn[nH]c5)cc4c32)ccc1C | 100 | 64 | 100 | 100 | 46 | 94 | 22 | 52 | 87 | 62 | 27 | 94 | 63 | 84 | 100 | 100 | 74 | 70 | 100 | 89 | kinase still bound, per cent of control (ITK (human)): 29%; kinase still bound, per cent of control (TBK1 (human)): 100%; kinase still bound, per cent of control (PTK2B (human)): 96%; kinase still bound, per cent of control (CDK3 (human)): 100%; kinase still bound, per cent of control (GRK1 (human)): 75%; kinase still bound, per cent of control (STK36 (human)): 79%; kinase still bound, per cent of control (MERTK (human)): 100%; kinase still bound, per cent of control (PRKCI (human)): 99%; kinase still bound, per cent of control (PIK3C2G (human)): 5.9%; kinase still bound, per cent of control (PIP4K2B (human)): 73%; kinase still bound, per cent of control (TLK2 (human)): 100%; kinase still bound, per cent of control (CDC42BPB (human)): 97%; kinase still bound, per cent of control (FGFR2 (human)): 94%; kinase still bound, per cent of control (STK38L (human)): 100%; kinase still bound, per cent of control (STK33 (human)): 100%; kinase still bound, per cent of control (EPHA4 (human)): 97%; kinase still bound, per cent of control (PLK3 (human)): 99%; kinase still bound, per cent of control (LATS2 (human)): 53%; kinase still bound, per cent of control (ULK2 (human)): 81%; kinase still bound, per cent of control (MLTK (human)): 6.9%
O=C(Nc1cccc(Nc2ncc(Br)c(NCCc3cnc[nH]3)n2)c1)N1CCCC1 | 66 | 0 | 0.95 | 0.3 | 74 | 54 | 56 | 34 | 100 | 100 | 84 | 76 | 3.2 | 24 | 0.3 | 51 | 0.6 | 30 | 97 | 1.7 | kinase still bound, per cent of control (ITK (human)): 4.5%; kinase still bound, per cent of control (TBK1 (human)): 0.7%; kinase still bound, per cent of control (PTK2B (human)): 8.2%; kinase still bound, per cent of control (CDK3 (human)): 62%; kinase still bound, per cent of control (GRK1 (human)): 47%; kinase still bound, per cent of control (STK36 (human)): 18%; kinase still bound, per cent of control (MERTK (human)): 0.5%; kinase still bound, per cent of control (PRKCI (human)): 45%; kinase still bound, per cent of control (PIK3C2G (human)): 25%; kinase still bound, per cent of control (PIP4K2B (human)): 0.55%; kinase still bound, per cent of control (TLK2 (human)): 56%; kinase still bound, per cent of control (CDC42BPB (human)): 82%; kinase still bound, per cent of control (FGFR2 (human)): 4.6%; kinase still bound, per cent of control (STK38L (human)): 69%; kinase still bound, per cent of control (STK33 (human)): 0.8%; kinase still bound, per cent of control (EPHA4 (human)): 100%; kinase still bound, per cent of control (PLK3 (human)): 20%; kinase still bound, per cent of control (LATS2 (human)): 0%; kinase still bound, per cent of control (ULK2 (human)): 0.3%; kinase still bound, per cent of control (MLTK (human)): 12%
